# Laboratory results from US8058264B2, “Pharmaceutical compositions comprising CB1 cannabinoid receptor antagonists and potassium channel openers for the treatment of obesity and related conditions” (Abbott Products GmbH, priority 2004, dated 2011).
# Assays:
# fatty Zucker rat = test: Acute oral glucose tolerance test (OGTT) in the fatty Zucker rat; assay type: in vivo; conditions: acute administration (over a period of 1 day)
# obese patients = conditions: chronic treatment, e.g. over a period of 1 year; cited from earlier work
# Kir6.2/SUR1 KATP channel = test: Opening of the Kir6.2/SUR1 KATP channel; assay type: biochemical
structure (smiles),measurement,setting,value
"Cc1c(C(=O)NN2CCCCC2)nn(-c2ccc(Cl)cc2Cl)c1-c1ccc(Cl)cc1 [5-(4-chlorophenyl)-1-(2,4-dichlorophenyl)-4-methyl-N-piperidin-1-yl-1H-pyrazole-3-carboxamide]",glucose plasma levels in OGTT,fatty Zucker rat,strong increase in glucose plasma levels
same,insulin release in OGTT,fatty Zucker rat,significantly reduced inhibition of insulin release
same,glucose tolerance and insulin resistance in obese patients,obese patients,improve glucose tolerance and insulin resistance
same,opener activity at the Kir6.2/SUR1 KATP channel,Kir6.2/SUR1 KATP channel,potent opener
